Measured values: ChEMBL document CHEMBL1201862, “PubChem BioAssay data set” (2004)
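Five compound concentrations were applied to cells in 96-well plates for 48 hours; endpoints were derived by simple linear interpolation of the resulting dose-response curve. GI50: concentration for 50% inhibition of growth.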 Active and inactive are the calls of the source. No stated cut-off is given here; in the data, active = GI50 up to about 1.1 µM and inactive = higher.

Tests used:
Test in all cases: NCI-60 cell line screen, 48 h
[1] = system: 786-0
[2] = system: A498
[3] = system: A549
[4] = system: ACHN
[5] = system: BT-549
[6] = system: CAKI-1
[7] = system: CCRF-CEM
[8] = system: COLO 205
[9] = system: DU-145
[10] = system: EKVX
[11] = system: HCC 2998
[12] = system: HCT-116
[13] = system: HCT-15
[14] = system: HL-60
[15] = system: HOP-62
[16] = system: HOP-92
[17] = system: HT-29
[18] = system: Hs-578T
[19] = system: IGROV-1
[20] = system: K562
[21] = system: KM12
[22] = system: LOX IMVI
[23] = system: M14
[24] = system: MCF7
[25] = system: MDA-MB-231
[26] = system: MDA-MB-435
[27] = system: MDA-N
[28] = system: MOLT-4
[29] = system: Malme-3M
[30] = system: NCI-H226
[31] = system: NCI-H23
[32] = system: NCI-H460
[33] = system: NCI-H522
[34] = system: NCI/ADR-RES
[35] = system: OVCAR-3
[36] = system: OVCAR-4
[37] = system: OVCAR-5
[38] = system: OVCAR-8
[39] = system: PC-3
[40] = system: RPMI-8226
[41] = system: RXF 393
[42] = system: SF-268
[43] = system: SF-295
[44] = system: SF-539
[45] = system: SK-MEL-28
[46] = system: SK-MEL-2
[47] = system: SK-MEL-5
[48] = system: SK-OV-3
[49] = system: SN12C
[50] = system: SNB-19
[51] = system: SNB-75
[52] = system: SR
[53] = system: SW-620
[54] = system: T47D
[55] = system: TK-10
[56] = system: U-251
[57] = system: UACC-257
[58] = system: UACC-62
[59] = system: UO-31

Nc1c2c(nc3ccccc13)-c1ccccc1CCC2 was tested, and the GI50 [1] was 14.1 µM (inactive), the GI50 [2] was 8.22 µM (inactive) and the GI50 [3] was 13.8 µM (inactive). The GI50 [4] was 13.7 µM (inactive), the GI50 [5] was 17.6 µM (inactive) and the GI50 [6] was 14.4 µM (inactive). The GI50 [7] was 13.5 µM (inactive), the GI50 [8] was 14.1 µM (inactive) and the GI50 [9] was 15.5 µM (inactive). For the same compound, the GI50 [10] was 17.3 µM (inactive), the GI50 [11] was 3.08 µM (inactive) and the GI50 [12] was 7.16 µM (inactive). The GI50 [13] was 14.3 µM, the GI50 [14] was 10.1 µM (inactive) and the GI50 [15] was 10.2 µM (inactive). For the same compound, the GI50 [16] was 9.12 µM (inactive), the GI50 [17] was 10.3 µM (inactive) and the GI50 [18] was 20.2 µM (inactive). For the same compound, the GI50 [19] was 14.1 µM (inactive), the GI50 [20] was 6.65 µM (inactive) and the GI50 [21] was 14.1 µM (inactive). For the same compound, the GI50 [22] was 12.7 µM (inactive), the GI50 [23] was 13.1 µM (inactive) and the GI50 [24] was 13.6 µM (inactive). The GI50 [25] was 13.8 µM (inactive), the GI50 [26] was 13.5 µM (inactive) and the GI50 [27] was 13.2 µM (inactive). The GI50 [28] was 8.34 µM (inactive), the GI50 [29] was 14.4 µM (inactive) and the GI50 [30] was 13.6 µM (inactive). The GI50 [31] was 15.7 µM (inactive), the GI50 [32] was 4.89 µM (inactive) and the GI50 [33] was 15.6 µM (inactive). The GI50 [34] was 14.2 µM (inactive), the GI50 [35] was 14.1 µM (inactive) and the GI50 [36] was 14.4 µM (inactive). For the same compound, the GI50 [37] was 13 µM (inactive), the GI50 [38] was 15 µM (inactive) and the GI50 [39] was 15.1 µM (inactive). The GI50 [40] was 8.67 µM (inactive), the GI50 [41] was 11.2 µM (inactive) and the GI50 [42] was 17.6 µM (inactive). For the same compound, the GI50 [43] was 5.98 µM (inactive), the GI50 [44] was 13.4 µM (inactive) and the GI50 [45] was 12.7 µM (inactive). The GI50 [46] was 15 µM (inactive), the GI50 [47] was 7.91 µM (inactive) and the GI50 [48] was 15.2 µM (inactive). The GI50 [49] was 16.3 µM (inactive), the GI50 [50] was 17.7 µM (inactive) and the GI50 [51] was 10.2 µM (inactive). The GI50 [52] was 2.39 µM (inactive), the GI50 [53] was 11.6 µM (inactive) and the GI50 [54] was 13.2 µM (inactive). The GI50 [55] was 10.7 µM (inactive), the GI50 [56] was 15 µM (inactive) and the GI50 [57] was 5.94 µM (inactive). The GI50 [58] was 10.7 µM (inactive) and the GI50 [59] was 10.5 µM (inactive).
